The values that follow come from patent publication US20220298115A1, “SMALL MOLECULE INHIBITORS OF ACETYL COENZYME A SYNTHETASE SHORT CHAIN 2 (ACSS2)” (Curadev Pharma Pvt. Ltd., priority 2019, published 2022).

As usually defined, the pIC50 is the negative decadic logarithm of the IC50, by convention in mol/L.

pIC50: −log10 of the molar value.

One test concerns the target T1, human ACSS2 (Homo sapiens, UniProt Q9NR19).
T1 construct: The cytosolic fraction of BT474 cells was used as a source of the ACSS2 enzyme; endogenous in cells; host or cells: BT474 cells (cytosolic fraction)
The experiment in a line: ACSS2 enzyme assay (acetyl-CoA formation, LC-MS/MS). The class given is biochemical. The conditions noted are these: cytosolic fraction of BT474 cells as ACSS2 source; 100 μM acetate, CoA and ATP; 2 h at 25° C.; read-out: Enzyme Activity (IC50 range). As for the experimental part:
Novel compounds were screened in a human ACSS2 enzyme assay. Briefly, the ACSS2 enzyme reaction was monitored by directly measuring acetyl-CoA formation. The cytosolic fraction of BT474 cells was used as a source of the ACSS2 enzyme. A short protocol for this assay is provided below.
Preparation of Cytosolic Fraction from BT474 Cells
9×10^6 cells were harvested by trypsinization followed by centrifugation. The cell pellet was washed with PBS and dissolved in 500 μl STM buffer (50 mM Tris-HCl pH7.4, 250 mM sucrose, 5 mM MgCl2 & protease-phosphatase inhibitor cocktail) and homogenized at 600-1000 rpm for 1 min. on ice followed by incubation for 30 min. with intermittent vortexing. Supernatant was collected by centrifugation at 800 g for 15 min. at 4° C. Cytosolic fraction was prepared by further centrifugation of the supernatant at 12000 g for 15 min. at 4° C. Total protein content of the cytosolic fraction was estimated & diluted to 1 mg/ml concentration in storage buffer (25 mM Tris-HCl pH7.4, 1 mM MgCl2, 1 mM DTT & 10% glycerol) and stored at −80° C. for further use.
100 ng of cytosolic fraction in buffer composed of 25 mM Tris-HCl pH7.4 1 mM MgCl2, 1 mM DTT & 0.05% Tween20 was preincubated with desired concentrations of novel compounds for 5 min. maintaining 1% DMSO. Reaction was started with addition of substrate mix (100 μM of acetate, CoA and ATP) and incubated for 2 h at 25° C. with constant shaking at 500 rpm. Post incubation the reaction was terminated by addition of 10% TCA followed by 5 fold dilution in water. The reaction mixture was centrifuged at 800 g for 10 min. at RT and acetyl-CoA detected in supernatant by LC-MS/MS (QTrap5500 ABSCIEX).

Test [1] concerns [14C] acetate incorporation in macromolecules, BT474 cells. Nature of the test: Cell based [14C] acetate incorporation assay. The settings on record: Homo sapiens, BT-474, 3 h at 37° C., read-out: Cellular Activity (IC50 range). As for the experimental part:
Cell Based [^14C] Acetate Incorporation Assay
In the cellular assay, ACSS2 inhibitors were screened against [^14C] acetate incorporation in macromolecules. 4×10^4 BT474 cells were plated in 96 well plates in growth media composed of DMEM & 10% FBS and incubated overnight in a 37° C., 5% CO2 incubator. The following day the cells were washed in HBSS and the assay was performed in 100 μl of HBSS. 50 μl of 4× compound in 4% DMSO was added to the cells and preincubated for 10 min. at 37° C. 50 μl of acetate solution (0.1 μCi ^14C acetate+10 μM ^12C acetate) was added to each well of the plate and incubated for 3 h in a 37° C., 5% CO2 incubator. Following incubation, cells were harvested with water on polyethylene imine (PEI) presoaked GF/C filtermat, air dried and radioactive count were recorded in Trilux micro beta Liquid Scintillation Counter (PerkinElmer).

T1 sequence (Q9NR19 whole entry): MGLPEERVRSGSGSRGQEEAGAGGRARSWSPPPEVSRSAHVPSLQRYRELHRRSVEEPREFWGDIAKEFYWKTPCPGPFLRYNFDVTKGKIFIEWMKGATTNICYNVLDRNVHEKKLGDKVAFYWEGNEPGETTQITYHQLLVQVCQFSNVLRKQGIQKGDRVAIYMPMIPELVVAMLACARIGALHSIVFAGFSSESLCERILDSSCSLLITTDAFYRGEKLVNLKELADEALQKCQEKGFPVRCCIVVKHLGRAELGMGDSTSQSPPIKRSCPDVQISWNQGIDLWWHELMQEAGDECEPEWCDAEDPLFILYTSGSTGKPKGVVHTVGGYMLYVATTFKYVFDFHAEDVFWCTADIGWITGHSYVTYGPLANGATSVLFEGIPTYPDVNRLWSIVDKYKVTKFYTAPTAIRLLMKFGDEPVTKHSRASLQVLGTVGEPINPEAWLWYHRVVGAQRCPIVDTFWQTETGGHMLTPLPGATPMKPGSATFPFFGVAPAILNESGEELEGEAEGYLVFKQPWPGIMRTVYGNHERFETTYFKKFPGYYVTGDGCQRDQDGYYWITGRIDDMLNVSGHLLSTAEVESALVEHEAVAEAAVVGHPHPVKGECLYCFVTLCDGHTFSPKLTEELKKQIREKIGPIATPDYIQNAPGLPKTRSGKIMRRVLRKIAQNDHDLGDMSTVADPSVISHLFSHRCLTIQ

As for `CC[C@@H](O)CNC(=O)Nc1ccc2nc(-c3ccccc3)c(C)c(C(=O)NC)c2c1` [Example 108, (R)-6-(3-(2-hydroxybutyl)ureido)-N,3-dimethyl-2-phenylquinoline-4-carboxamide], the pIC50 (at human ACSS2; in test [1]) was over 7.00 throughout.

For `CCC(O)CNC(=O)Nc1ccc2nc(C)c(-c3ccccc3)c(C(N)=O)c2c1` (centres unmarked) [Example 66, 6-(3-(2-hydroxybutyl)ureido)-2-methyl-3-phenylquinoline-4-carboxamide], the pIC50 on human ACSS2 is over 7.00; in test [1], at least 6.00.

Regarding `CCC(O)CNC(=O)Nc1ccc2nc(-c3ccccc3)c(-c3ccccc3)c(-c3ncco3)c2c1` (centres unmarked) [Example 97, 1-(2-hydroxybutyl)-3-(4-(oxazol-2-yl)-2,3-diphenylquinolin-6-yl)urea], the pIC50 (on human ACSS2; in test [1]) was over 7.00 throughout.

Take `CCC(O)CNC(=O)Nc1ccc2nc(-c3ccccc3)c(-c3ccccc3)c(NC(C)=O)c2c1` (centres unmarked) [Example 84, N-(6-(3-(2-hydroxybutyl)ureido)-2,3-diphenylquinolin-4-yl)acetamide]: the pIC50 (on human ACSS2; in test [1]) was over 7.00 each time.

Consider `CCC(O)CNC(=O)Nc1ccc2nc(-c3ccccc3)c(-c3ccccc3)c(C(=O)N(C)C)c2c1` (centres unmarked) [Example 63, 6-(3-(2-hydroxybutyl)ureido)-N,N-dimethyl-2,3-diphenylquino-line-4-carboxamide], for which the negative logarithm of the IC50 (pIC50) (on human ACSS2; in test [1]) was over 7.00 in each case.

With `CC[C@@H](O)CNC(=O)Nc1ccc2nc(-c3ccccc3)c(-c3ccccc3)c(C(=O)Nc3ccn(C)n3)c2c1` [Example 112, (R)-6-(3-(2-hydroxybutyl)ureido)-N-(1-methyl-1H-pyrazol-3-yl)-2,3-diphenylquino-line-4-carboxamide], the pIC50 (on human ACSS2; in test [1]) was over 7.00 throughout.

For the compound `CCC(O)CNC(=O)Nc1ccc2nc(-c3ccccc3OC)c(-c3ccccc3F)cc2c1` (centres unmarked) [Example 18, 1-(3-(2-fluorophenyl)-2-(2-methoxyphenyl)quinolin-6-yl)-3-(2-hydroxybutyl) urea], the negative logarithm of the IC50 (pIC50) (at human ACSS2; in test [1]) was over 7.00 in each case.

With `CCC(O)CNC(=O)Nc1ccc2nc(-c3ccc(OC)nc3)c(-c3ccc(OC)nc3)cc2c1` (centres unmarked) [Example 11, 1-(2,3-bis(6-methoxypyridin-3-yl)quinolin-6-yl)-3-(2-hydroxybutyl) urea], the pIC50 was at least 6.00 at human ACSS2 and at least 5.00 in test [1].

`CC[C@@H](O)CNC(=O)Nc1ccc2nc(C)c(-c3ccccc3)c(OC)c2c1` [Example 102, (R)-1-(2-hydroxybutyl)-3-(4-methoxy-2-methyl-3-phenylquinolin-6-yl)urea]: the pIC50 (at human ACSS2; in test [1]) was over 7.00 each time.

`CCC(O)CNC(=O)Nc1ccc2nc(-c3ccccc3)c(-c3ccccc3)c(C(=O)NC3CC3)c2c1` (centres unmarked) [Example 64, N-cyclopropyl-6-(3-(2-hydroxybutyl)ureido)-2,3-diphenylquino-line-4-carboxamide]: the pIC50 (at human ACSS2; in test [1]) was over 7.00 throughout.

With `C#Cc1nc2ccc(NC(=O)NCC(O)CC)cc2cc1-c1ccccc1` (centres unmarked) [Example 60, 1-(2-ethynyl-3-phenylquinolin-6-yl)-3-(2-hydroxybutyl) urea], the pIC50 (on human ACSS2; in test [1]) was over 7.00 each time.

Turning to `CCC(O)CNC(=O)Nc1ccc2nc(-c3cccc(F)c3)c(-c3ccccc3F)cc2c1` (centres unmarked) [Example 46, 1-(3-(2-fluorophenyl)-2-(3-fluorophenyl)quinolin-6-yl)-3-(2-hydroxybutyl) urea], the pIC50 (at human ACSS2; in test [1]) was over 7.00 in each case.

Regarding `CCC(O)CNC(=O)Nc1ccc2nc(-c3cccc(C(C)=O)c3)c(-c3cccc(C(C)=O)c3)cc2c1` (centres unmarked) [Example 21, 1-(2,3-bis(3-acetylphenyl)quinolin-6-yl)-3-(2-hydroxybutyl) urea], the pIC50 (on human ACSS2; in test [1]) was at least 5.00 each time.

As for `CCC(O)CNC(=O)Nc1ccc2nc(CCc3ccccc3)c(-c3ccccc3)cc2c1` (centres unmarked) [Example 56, 1-(2-hydroxybutyl)-3-(2-phenethyl-3-phenylquinolin-6-yl)urea], the negative-log IC50 (pIC50) (on human ACSS2; in test [1]) was at least 5.00 in each case.

With `CCC(O)CNC(=O)Nc1ccc2nc(C3CC3)c(-c3ccccc3)cc2c1` (centres unmarked) [Example 40, 1-(2-cyclopropyl-3-phenylquinolin-6-yl)-3-(2-hydroxybutyl) urea], the negative logarithm of the IC50 (pIC50) at human ACSS2 is at least 6.00; in test [1], at least 5.00.

`CC[C@@H](O)CNC(=O)Nc1ccc2nc(-c3ccccc3)c(-c3ccccc3)c(C(N)=O)c2c1` [Example 57, (R)-6-(3-(2-hydroxybutyl)ureido)-2,3-diphenylquino-line-4-carboxamide]: the negative-log IC50 (pIC50) (at human ACSS2; in test [1]) was over 7.00 throughout.

Turning to `CC[C@H](O)CNC(=O)Nc1ccc2nc(-c3ccccc3)c(-c3ccccc3)cc2c1` [Example 30, (S)-1-(2,3-diphenylquinolin-6-yl)-3-(2-hydroxybutyl) urea], the pIC50 (at human ACSS2; in test [1]) was over 7.00 throughout.

Turning to `CCc1nc2ccc(NC(=O)NCC(O)CC)cc2cc1-c1ccccc1` (centres unmarked) [Example 61, 1-(2-ethyl-3-phenylquinolin-6-yl)-3-(2-hydroxybutyl) urea], the negative-log IC50 (pIC50) (on human ACSS2; in test [1]) was over 7.00 in each case.

`C=CCNC(=O)Nc1ccc2nc(-c3ccccc3)c(-c3ccccc3)cc2c1` [Example 134, 1-allyl-3-(2,3-diphenylquinolin-6-yl)urea]: the pIC50 (at human ACSS2; in test [1]) was at least 6.00 throughout.

Turning to `CC[C@H](O)CNC(=O)Nc1ccc2nc(-c3ccccc3OC)c(-c3ccccc3F)cc2c1` [Example 36, (S)-1-(3-(2-fluorophenyl)-2-(2-methoxyphenyl)quinolin-6-yl)-3-(2-hydroxybutyl) urea], the negative-log IC50 (pIC50) (on human ACSS2; in test [1]) was over 7.00 each time.

Consider `CC[C@@H](O)CNC(=O)Nc1ccc2nc(C)c(-c3ccccc3F)cc2c1-c1ccc[nH]c1=O` [Example 111, (R)-1-(3-(2-fluorophenyl)-2-methyl-5-(2-oxo-1,2-dihydropyridin-3-yl)quinolin-6-yl)-3-(2-hydroxybutyl) urea], for which the pIC50 was over 7.00 on human ACSS2 and at least 6.00 in test [1].

Take `CCC(O)CNC(=O)Nc1ccc2nc(-c3ccccc3C#N)c(-c3ccccc3F)cc2c1` (centres unmarked) [Example 53, 1-(2-(2-cyanophenyl)-3-(2-fluorophenyl)quinolin-6-yl)-3-(2-hydroxybutyl) urea]: the figures for the negative-log IC50 (pIC50) (on human ACSS2; in test [1]) were over 7.00 and at least 6.00, respectively.

As for `CCCCNC(=O)Nc1ccc2nc(-c3ccccc3)c(-c3ccccc3OC)cc2c1` [Example 23, 1-butyl-3-(3-(2-methoxyphenyl)-2-phenylquinolin-6-yl)urea], the pIC50 (at human ACSS2; in test [1]) was over 7.00 in each case.

Consider `CC[C@H](O)CNC(=O)Nc1ccc2nc(C)c(-c3ccccc3)cc2c1` [Example 89, (S)-1-(2-hydroxybutyl)-3-(2-methyl-3-phenylquinolin-6-yl)urea], for which the negative logarithm of the IC50 (pIC50) (on human ACSS2; in test [1]) was at least 6.00 each time.

As to `CN1CCC(NC(=O)Nc2ccc3nc(-c4ccccc4)c(-c4ccccc4)cc3c2)C1` (centres unmarked) [Example 141, 1-(2,3-diphenylquinolin-6-yl)-3-(1-methylpyrrolidin-3-yl)urea], the negative logarithm of the IC50 (pIC50) at human ACSS2 is at least 5.00; in test [1], under 5.00.

In the case of `CCC(O)CNC(=O)Nc1ccc2ncc(-c3ccccc3)c(C(N)=O)c2c1` (centres unmarked) [Example 71, 6-(3-(2-hydroxybutyl)ureido)-3-phenylquinoline-4-carboxamide], the pIC50 on human ACSS2 was at least 6.00; in test [1] it was under 5.00.

With `CCCCCC(=O)Nc1ccc2nc(-c3ccccc3)c(-c3ccccc3)cc2c1` [Example 118, N-(2,3-diphenyl-quinolin-6-yl) hexanamide], the pIC50 (at human ACSS2; in test [1]) was at least 6.00 each time.

For `CCC(O)CNC(=O)Nc1ccc2nc(-c3ccccc3)c(-c3ccccc3)cc2c1` (centres unmarked) [Example 1, 1-(2,3-diphenylquinolin-6-yl)-3-(2-hydroxybutyl) urea], the negative-log IC50 (pIC50) (on human ACSS2; in test [1]) was over 7.00 in each case.
